Measured values reported in US4857507A, “Angiotensinogen analogs” (Abbott Laboratories, priority 1987, dated 1989).

Biological target: T1, human renal renin (Homo sapiens, UniProt P00797)
T1 construct: human renal renin, free from acid proteolytic activity; from tissue; host or cells: human kidney (from the word 'renal')
T1 sequence (P00797 67-406): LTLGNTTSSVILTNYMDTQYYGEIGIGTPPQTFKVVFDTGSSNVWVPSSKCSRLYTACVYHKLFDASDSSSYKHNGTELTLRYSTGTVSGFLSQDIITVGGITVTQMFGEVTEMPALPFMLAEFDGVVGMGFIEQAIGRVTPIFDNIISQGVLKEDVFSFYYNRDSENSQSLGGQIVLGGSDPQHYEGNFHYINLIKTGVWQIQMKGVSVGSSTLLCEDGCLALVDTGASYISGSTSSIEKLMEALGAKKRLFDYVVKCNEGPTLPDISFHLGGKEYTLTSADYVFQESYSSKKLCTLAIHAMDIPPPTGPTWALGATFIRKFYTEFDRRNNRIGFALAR
Assay: inhibition of human renal renin in vitro, angiotensin I formed measured by radioimmunoassay
Format: biochemical
Conditions: human renal renin with human renin substrate (angiotensinogen), 37° C., pH 6.0
Procedure: At the end of the incubation, the amount of angiotensin I formed is measured by radioimmunoassay and the molor concentration required to cause 50% inhibition, expressed as the IC50, is calculated.

- IC50: 15 nM
Substance: Boc-Phe-3-methyl-His Amide of (3S,4S)-1-(3-Methylbutylcarbonylamino)-3-hydroxy-4-amino-5-cyclohexylpentane [Example 52]
